The target of test [1] is T1, NS3/NS4A-2 (full-length HCV NS3 protease complexed with NS4A-2) (Hepatitis C virus genotype 1a, UniProt P27958).
T1 construct: Recombinant E. coli or Baculovirus full-length NS3; host or cells: E. coli or baculovirus (insect cells)
The test can be described thus: NS3 inhibition assay (NS3-NS4 protease assay). Type of test: biochemical. The gist of the method:
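Full-length NS3 (E. coli-expressed at 2 nM or baculovirus-expressed at 3 nM) precomplexed with excess NS4A-2 peptide and preincubated with compound (top concentration 50 μM) for 10 min at room temperature. RETS1 substrate added; fluorescence read kinetically for 30 min (ex 335/em 495 nm). IC50 converted to Ki using Km 2.03 μM (E. coli) or 1.74 μM (baculovirus).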

The subject of test [2] is HCV sub-genomic replicon (1377/NS3-3') in HuH-7 hepatoma cells (GS4.3). The test can be described thus: Quantitation by ELISA of NPTII in the HCV sub-genomic replicon, GS4.3. It is filed as cell-based, hepatitis C virus (HCV). The conditions noted are these: GS4.3 cells, 72 h incubation, NPTII ELISA, read-out: Replicon EC50. The gist of the method:
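GS4.3 cells (HuH-7 carrying HCV 1377/NS3-3′ replicon) treated 72 h at 37 °C with compound at 3-fold dilutions from 10 μM to 56 pM final, 1% DMSO, without G418. NPTII in lysates quantified by ELISA (450 nm). Signal expressed as percent of DMSO control; EC50 by 4-parameter fit.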

Where [3] appears, read: recombinant full-length NS3/NS4A-2, RETS1 substrate, kinetic fluorescence read, read-out: NS3-NS4 IC50.

Like-named read-outs stand apart in the source and are kept apart here.

T1 sequence (P27958 1027-1657, one chain of several): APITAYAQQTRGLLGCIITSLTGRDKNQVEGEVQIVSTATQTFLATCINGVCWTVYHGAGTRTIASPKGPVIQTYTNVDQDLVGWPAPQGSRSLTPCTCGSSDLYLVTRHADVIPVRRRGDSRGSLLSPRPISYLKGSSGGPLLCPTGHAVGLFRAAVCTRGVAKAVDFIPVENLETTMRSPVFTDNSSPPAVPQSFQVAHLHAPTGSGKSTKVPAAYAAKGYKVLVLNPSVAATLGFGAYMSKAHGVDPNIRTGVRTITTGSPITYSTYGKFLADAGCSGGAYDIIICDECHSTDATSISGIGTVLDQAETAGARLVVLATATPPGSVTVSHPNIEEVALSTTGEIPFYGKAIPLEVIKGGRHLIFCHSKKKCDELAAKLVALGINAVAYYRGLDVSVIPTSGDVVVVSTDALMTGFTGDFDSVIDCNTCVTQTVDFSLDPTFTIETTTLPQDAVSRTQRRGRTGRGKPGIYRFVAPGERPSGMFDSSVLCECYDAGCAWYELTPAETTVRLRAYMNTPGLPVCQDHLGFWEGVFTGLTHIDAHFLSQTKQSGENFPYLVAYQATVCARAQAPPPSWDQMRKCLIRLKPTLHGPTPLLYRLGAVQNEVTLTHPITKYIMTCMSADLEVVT

Consider `C=C[C@@H]1C[C@]1(NC(=O)[C@@H]1C[C@@H](OC(=O)N2Cc3cccc(Cl)c3C2)CN1C(=O)[C@@H](Nc1nc(C(F)(F)F)cs1)C1CCCCC1)C(=O)NS(=O)(=O)C1CC1` [Compound 63, [(3R,5S)-5-(((1R,2S)-1-(Cyclopropylsulfonylcarbamoyl)-2-vinylcyclopropyl)carbamoyl)-1-((S)-2-cyclohexyl-2-(4-(trifluoromethyl)thiazol-2-ylamino)acetyl)pyrrolidin-3-yl]4-chloroisoindoline-2-carboxylate], for which the concentration for half-maximal inhibition (IC50) in test [1] (setting [3]) was < 100 nM. In addition, the concentration for a half-maximal effect (EC50) in test [2] (Hepatitis C virus, Huh-7) was < 100 nM.

As to `CC[C@@H]1C[C@]1(NC(=O)[C@@H]1C[C@@H](OC(=O)N2Cc3cccc(F)c3C2)CN1C(=O)[C@@H](Nc1cccc(C(F)(F)F)c1)C(C)C)C(=O)NS(=O)(=O)C1CC1` [Compound 47, [(3R,5S)-5-((1R,2R)-1-(cyclopropylsulfonylcarbamoyl)-2-ethylcyclopropylcarbamoyl)-1-((S)-3-methyl-2-(3-(trifluoromethyl)phenylamino)butanoyl)pyrrolidin-3-yl]4-fluoroisoindoline-2-carboxylate], in test [1] (setting [3]), the concentration for half-maximal inhibition (IC50) is < 100 nM. Moreover, in test [2] (Hepatitis C virus, Huh-7), the EC50 was < 100 nM.

Turning to `C=C[C@@H]1C[C@]1(NC(=O)C1Cc2cc(Oc3cccc(Cl)c3)ccc2CN1C(=O)[C@@H](Nc1ccc(F)cc1)C(C)(C)C)C(=O)NS(=O)(=O)C1CC1` (stereo partly drawn) [Compound 10, 6-(3-chlorophenoxy)-N-((1R,2S)-1-(cyclopropylsulfonylcarbamoyl)-2-vinylcyclopropyl)-2-((S)-2-(4-fluorophenylamino)-3,3-dimethylbutanoyl)-1,2,3,4-tetrahydroisoquinoline-3-carboxamide], in test [1] (setting [3]), the 50% inhibitory concentration (IC50) is < 100 nM. Further, the EC50 in test [2] (Hepatitis C virus, Huh-7) lay within 1000 to 10000 nM.

With `CC[C@@H]1CC1(NC(=O)[C@@H]1C[C@@H](OC(=O)N2Cc3cccc(Cl)c3C2)CN1C(=O)[C@@H](Nc1cccnc1)C(C)(C)C)C(=O)NS(=O)(=O)C1CC1` (some centres unmarked) [Compound 74], in test [1] (setting [3]), the IC50 is < 100 nM. The EC50 in test [2] (Hepatitis C virus, Huh-7) is < 100 nM.

As for `CC[C@@H]1C[C@]1(NC(=O)[C@@H]1C[C@@H](OC(=O)N2Cc3cccc(F)c3C2)CN1C(=O)[C@@H](Nc1ccc(F)c(C(F)(F)F)c1)C(C)C)C(=O)NS(=O)(=O)C1CC1` [Compound 52, [(3R,5S)-5-((1R,2R)-1-(cyclopropylsulfonylcarbamoyl)-2-ethylcyclopropylcarbamoyl)-1-((S)-2-(4-fluoro-3-(trifluoromethyl)phenylamino)-3-methylbutanoyl)pyrrolidin-3-yl]4-fluoroisoindoline-2-carboxylate], the half-inhibitory concentration (IC50) in test [1] (setting [3]) is < 100 nM. Moreover, the concentration giving a half-maximal response (EC50) in test [2] (Hepatitis C virus, Huh-7) was < 100 nM.

Regarding `CC[C@@H]1C[C@]1(NC(=O)[C@@H]1C[C@@H](Oc2nc3ccccc3s2)CN1C(=O)[C@@H](Nc1cccc(C(F)(F)F)c1)C(C)(C)C)C(=O)NS(=O)(=O)C1CC1` [Compound 69], the IC50 in test [1] (setting [3]) is < 100 nM. Moreover, in test [2] (Hepatitis C virus, Huh-7), the concentration giving a half-maximal response (EC50) is < 100 nM.

In the case of `CC[C@@H]1C[C@]1(NC(=O)[C@@H]1C[C@@H](OC(=O)N2Cc3cccc(F)c3C2)CN1C(=O)[C@@H](Nc1cccc(C(F)(F)F)c1)C(C)(C)C)C(=O)NS(=O)(=O)C1CC1` [Compound 56, [(3R,5S)-5-((1R,2R)-1-(cyclopropylsulfonylcarbamoyl)-2-ethylcyclopropylcarbamoyl)-1-((S)-3,3-dimethyl-2-(3-(trifluoromethyl)phenylamino)butanoyl)pyrrolidin-3-yl]4-fluoroisoindoline-2-carboxylate], the half-inhibitory concentration (IC50) in test [1] (setting [3]) was < 100 nM. For the same molecule, the concentration giving a half-maximal response (EC50) in test [2] (Hepatitis C virus, Huh-7) is < 100 nM.

Turning to `C=C[C@@H]1C[C@]1(NC(=O)[C@@H]1C[C@@H](OC(=O)N2Cc3cccc(F)c3C2)CN1C(=O)[C@@H](Nc1ccc(C(C)(C)C)cc1)C(C)C)C(=O)NS(=O)(=O)C1CC1` [Compound 38, [(3R,5S)-1-((S)-2-(4-tert-butylphenylamino)-3-methylbutanoyl)-5-((1R,2S)-1-(cyclopropylsulfonylcarbamoyl)-2-vinylcyclopropylcarbamoyl)pyrrolidin-3-yl]4-fluoroisoindoline-2-carboxylate], in test [1] (setting [3]), the half-inhibitory concentration (IC50) is < 100 nM. For the same molecule, the EC50 in test [2] (Hepatitis C virus, Huh-7) lay within 100 to 1000 nM.

In the case of `C=C[C@@H]1C[C@]1(NC(=O)[C@@H]1C[C@@H](OC(=O)N2Cc3cccc(F)c3C2)CN1C(=O)[C@@H](Nc1cccc(C(F)(F)F)c1)C(C)C)C(=O)NS(=O)(=O)C1CC1` [Compound 42, [(3R,5S)-5-((1R,2S)-1-(cyclopropylsulfonylcarbamoyl)-2-vinylcyclopropylcarbamoyl)-1-((S)-3-methyl-2-(3-(trifluoromethyl)phenylamino)butanoyl)pyrrolidin-3-yl]4-fluoroisoindoline-2-carboxylate], in test [1] (setting [3]), the IC50 was < 100 nM. For the same molecule, the EC50 in test [2] (Hepatitis C virus, Huh-7) is < 100 nM.

With `CC[C@@H]1C[C@]1(NC(=O)[C@@H]1C[C@@H](OC(=O)N2Cc3cccc(F)c3C2)CN1C(=O)[C@@H](Nc1cccc(C(C)(C)C#N)c1)C(C)C)C(=O)NS(=O)(=O)C1CC1` [Compound 53, [(3R,5S)-1-((S)-2-(3-(2-cyanopropan-2-yl)phenylamino)-3-methylbutanoyl)-5-((1R,2R)-1-(cyclopropylsulfonylcarbamoyl)-2-ethylcyclopropylcarbamoyl)-pyrrolidin-3-yl]4-fluoroisoindoline-2-carboxylate], in test [1] (setting [3]), the IC50 is < 100 nM. The 50% effective concentration (EC50) in test [2] (Hepatitis C virus, Huh-7) was < 100 nM.

On to `CC[C@@H]1C[C@]1(NC(=O)[C@@H]1C[C@@H](OC(=O)N2Cc3cccc(Cl)c3C2)CN1C(=O)[C@@H](Nc1cncc(C(F)(F)F)c1)C(C)(C)C)C(=O)NS(=O)(=O)C1CC1` [Compound 58, [(3R,5S)-5-((1R,2R)-1-(cyclopropylsulfonylcarbamoyl)-2-ethylcyclopropylcarbamoyl)-1-((S)-3,3-dimethyl-2-(5-(trifluoromethyl)pyridin-3-ylamino)butanoyl)pyrrolidin-3-yl]4-chloroisoindoline-2-carboxylate], for which the concentration for half-maximal inhibition (IC50) in test [1] (setting [3]) is < 100 nM. For the same molecule, the EC50 in test [2] (Hepatitis C virus, Huh-7) was < 100 nM.

`CC[C@@H]1C[C@]1(NC(=O)[C@@H]1C[C@@H](OC(=O)N2Cc3cccc(Cl)c3C2)CN1C(=O)[C@@H](Nc1cccc(Oc2ccccc2)c1)C(C)(C)C)C(=O)NS(=O)(=O)C1CC1` [Compound 76]: the IC50 in test [1] (setting [3]) was < 100 nM. Moreover, in test [2] (Hepatitis C virus, Huh-7), the concentration for a half-maximal effect (EC50) is < 100 nM.

Take `C=C[C@@H]1C[C@]1(NC(=O)[C@@H]1C[C@@H](OC(=O)N2Cc3cccc(F)c3C2)CN1C(=O)[C@@H](Nc1ccc(Br)cc1)C(C)C)C(=O)NS(=O)(=O)C1CC1` [Compound 36, [(3R,5S)-5-((1R,2S)-1-(cyclopropylsulfonylcarbamoyl)-2-vinylcyclopropylcarbamoyl)-1-((S)-2-(4-bromophenylamino)-3-methylbutanoyl)pyrrolidin-3-yl]4-fluoroisoindoline-2-carboxylate]: in test [1] (setting [3]), the IC50 is < 100 nM. For the same molecule, the half-maximal effective concentration (EC50) in test [2] (Hepatitis C virus, Huh-7) was 100 to 1000 nM.

As for “[(3R,5S)-5-(((1R,2S)-1-(cyclopropylsulfonylcarbamoyl)-2-vinylcyclopropyl)carbamoyl)-1-((S)-2-cyclohexyl-2-(5-ethylthiazol-2-ylamino)acetyl)pyrrolidin-3-yl]4-chloroisoindoline-2-carboxylate [Compound 62]”, in test [1] (setting [3]), the IC50 is < 100 nM. Besides, in test [2], the concentration for a half-maximal effect (EC50) is < 100 nM.

Consider `C=C[C@@H]1C[C@]1(NC(=O)[C@@H]1C[C@@H](OC(=O)N2Cc3cccc(F)c3C2)CN1C(=O)[C@@H](Nc1ccc(F)cc1)C(C)(C)C)C(=O)NS(=O)(=O)C1CC1` [Compound 37, [(3R,5S)-5-((1R,2S)-1-(cyclopropylsulfonylcarbamoyl)-2-vinylcyclopropylcarbamoyl)-1-((S)-2-(4-fluorophenylamino)-3,3-methylbutanoyl)pyrrolidin-3-yl]4-fluoroisoindoline-2-carboxylate], for which, in test [1] (setting [3]), the IC50 is < 100 nM. Moreover, in test [2] (Hepatitis C virus, Huh-7), the half-maximal effective concentration (EC50) was < 100 nM.

“[(3R,5S)-5-((1R,2R)-1-(cyclopropylsulfonylcarbamoyl)-2-ethylcyclopropylcarbamoyl)-1-((S)-3,3-dimethyl-2-(3-(trifluoromethyl)phenylamino)butanoyl)pyrrolidin-3-yl]4-chloroisoindoline-2-carboxylate [Compound 55]”: the IC50 in test [1] (setting [3]) was < 100 nM. The concentration giving a half-maximal response (EC50) in test [2] is < 100 nM.

Take `CC[C@@H]1C[C@]1(NC(=O)[C@@H]1C[C@@H](OC(=O)N2Cc3cccc(Cl)c3C2)CN1C(=O)[C@@H](Nc1cccc(C(F)(F)F)c1)C(C)(C)C)C(=O)NOC(C)(C)C` [Compound 71]: the IC50 in test [1] (setting [3]) was 100 to 1000 nM. Further, the 50% effective concentration (EC50) in test [2] (Hepatitis C virus, Huh-7) is 100 to 1000 nM.

As to `CC(C)(C)[C@H](Nc1cccc(C(F)(F)F)c1)C(=O)N1C[C@H](OC(=O)N2Cc3cccc(Cl)c3C2)C[C@H]1C(=O)N[C@]1(C(=O)NS(=O)(=O)C2CC2)C[C@H]1C1CC1` [Compound 60, [(3R,5S)-5-((1R,2S)-1-(cyclopropylsulfonylcarbamoyl)-2-cyclopropylcyclopropylcarbamoyl)-1-((S)-3,3-dimethyl-2-(3-(trifluoromethyl)phenylamino)-butanoyl)pyrrolidin-3-yl]4-chloroisoindoline-2-carboxylate], the IC50 in test [1] (setting [3]) is < 100 nM. Besides, in test [2] (Hepatitis C virus, Huh-7), the EC50 was < 100 nM.

Consider `CC[C@@H]1C[C@]1(NC(=O)[C@@H]1C[C@@H](OC(=O)N2Cc3cccc(Cl)c3C2)CN1C(=O)[C@@H](Nc1cccc(C(F)(F)F)c1)C(C)(C)C)C(=O)NS(=O)(=O)C1(C)CC1` [Compound 81], for which the IC50 in test [1] is < 100 nM. In test [2] (Hepatitis C virus, Huh-7), the concentration for a half-maximal effect (EC50) is < 100 nM.
